Measured values: PubChem BioAssay (NCI)
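Dose response: 5 concentrations. Exposure: 48 h. Format: 96-well plates. Endpoint: linear interpolation; highest concentration if not reached. GI50 marks 50% less growth. Definition used: TGI = concentration required for complete inhibition of growth.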

Experiments:
Assay in all cases: NCI-60 cell line screen, 48 h
SK-OV-3 ovarian = tested on: SK-OV-3 ovarian
SF-539 CNS = tested on: SF-539 CNS
HCT-15 colon = tested on: HCT-15 colon
HCC-2998 colon = tested on: HCC-2998 colon
KM20L2 colon = tested on: KM20L2 colon
A498 renal = tested on: A498 renal
DMS 273 small cell lung = tested on: DMS 273 small cell lung
HOP-18 NSCLC = tested on: HOP-18 NSCLC
HT29 colon = tested on: HT29 colon
M19-MEL melanoma = tested on: M19-MEL melanoma
MDA-MB-435 = tested on: MDA-MB-435

Row | SMILES | TGI (SK-OV-3 ovarian) [µM] | TGI (SF-539 CNS) [µM] | TGI (HCT-15 colon) [µM] | TGI (HCC-2998 colon) [µM] | TGI (KM20L2 colon) [µM] | TGI (A498 renal) [µM] | TGI (DMS 273 small cell lung) [µM] | TGI (HOP-18 NSCLC) [µM] | TGI (HT29 colon) [µM] | TGI (M19-MEL melanoma) [µM] | GI50 (SK-OV-3 ovarian) [µM] | GI50 (HCT-15 colon) [µM] | GI50 (HCC-2998 colon) [µM] | TGI (MDA-MB-435) [µM] | GI50 (HOP-18 NSCLC) [µM] | GI50 (M19-MEL melanoma) [µM] | GI50 (DMS 273 small cell lung) [µM] | GI50 (HT29 colon) [µM]
1 | CCCCC#C[I+]c1ccccc1 | 30.4 | 38.8 | 30 | 34.4 | 35.9 | 48.2 | 40.9 | 27.6 | 32 | 30.1 |  |  |  |  |  |  |  | 
2 | O=C(NC(=O)c1ccccc1[N+](=O)[O-])Nc1ccc(Oc2ncc(Br)cn2)c(Cl)c1 |  | 0.0524 | > 42.7 | 32.9 | 0.059 | 0.052 | 0.0212 | > 100 | 0.0568 |  | < 0.0176 | < 0.0258 | 0.0497 | 0.0312 | > 100 | < 0.0229 |  | 
3 | CCC(C(=O)O)c1ccc(OC)cc1 (centres undefined) | > 100 | > 100 |  | > 100 | > 100 | > 100 | > 100 |  | > 100 | > 100 |  |  |  |  |  |  |  | 
4 | O=C(CCN1CCCCC1)C(=Cc1ccccc1)C(=O)CCN1CCCCC1 | > 100 | > 100 |  | > 100 | > 100 | > 100 | > 100 | > 100 | > 100 | > 100 |  | 3.07 |  |  | > 100 |  | 7.61 | 76.3
5 | CC(=O)OC1CC(OC2C(O)CC(OC3C(O)CC(OC4CCC5(C)C(CCC6C5CC(O)C5(C)C(C7=CC(=O)OC7)CCC65O)C4)OC3C)OC2C)OC(C)C1OC1OC(CO)C(O)C(O)C1O (centres undefined) | 0.333 | 0.0891 | 0.16 | 0.441 |  | 0.413 |  |  | 0.252 |  |  |  |  | 0.61 |  |  |  | 
6 | CC[C@@H]1CC[C@@H]2[C@H](CC[C@]3(C)[C@@H](OC(C)=O)CC[C@@H]23)[C@H]1COC(C)=O | > 100 | 67.9 | 56 | 33.4 |  | 94.4 |  |  | 39.5 |  |  |  |  | 50.2 |  |  |  | 
7 | COC(=O)C1SC(SC)=NC12c1ccccc1Nc1ccccc12 (centres undefined) | > 100 | 35.4 | > 100 | 74.3 |  | > 100 |  |  | > 100 |  |  |  |  | 67.8 |  |  |  | 
8 | CC(C)CCS(=O)(=O)OCCCCOS(=O)(=O)CCC(C)C | > 100 | > 100 | > 100 | > 100 | > 100 |  | > 100 |  | > 100 | > 100 |  |  |  |  |  |  |  | 
